The text below walks through data of patent US7314861B2, “Melanin-concentrating hormone analogs” (priority 2001, dated 2008).

SMILES strings stand for the structures. Where a SMILES comes first, the peptide text is derived from it. Bridges are numbered along the chain shown (N, C = ends).

The target of one test is human MCH-R2 (Homo sapiens, UniProt Q969V1). As to the kind of experiment: Aequorin bioluminescence functional assay, MCH-2R. The note with it: Table 3; % Activation at 10 μM, aequorin functional assay.
human MCH-R2, sequence (Q969V1 whole entry): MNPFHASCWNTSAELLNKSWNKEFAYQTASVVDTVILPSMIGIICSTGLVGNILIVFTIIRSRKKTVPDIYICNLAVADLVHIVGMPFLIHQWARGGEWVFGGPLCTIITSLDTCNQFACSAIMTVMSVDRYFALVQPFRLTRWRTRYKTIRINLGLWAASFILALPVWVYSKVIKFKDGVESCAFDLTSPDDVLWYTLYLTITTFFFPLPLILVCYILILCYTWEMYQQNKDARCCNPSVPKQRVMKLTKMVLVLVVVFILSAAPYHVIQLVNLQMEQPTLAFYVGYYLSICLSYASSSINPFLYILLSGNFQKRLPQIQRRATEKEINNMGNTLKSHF
Test [1] addresses T1, human MCH-1R (Homo sapiens, UniProt Q99705). As to the kind of experiment: Radiolabeled MCH-R binding assay (SPA based), MCH-1R.
Experimental: (§1) Cell membranes were prepared on ice. Each T-75 flask was rinsed twice with 10 ml of Enzyme-free Cell Dissociation Buffer (Specialty Media, Lavallette, N.J.), and the cell monolayer was detached in an additional 10 ml of Enzyme-free Cell Dissociation Buffer by incubation at room temperature for 10 minutes. Dissociated cells were centrifuged (500×g for 10 minutes at 4° C.), resuspended in 5 ml homogenization buffer (10 mM Tris-HCl, pH 7.4, 0.01 mM Pefabloc, 10 μM phosphoramidon, 40 μg/ml bacitracin) and then homogenized using a glass homogenizer (10-15 strokes). The homogenate was centrifuged for 10 minutes (1,000×g at 4° C.). The resulting supernatant was then centrifuged at 38,700×g for 15 minutes at 4° C. Pelleted membranes were resuspended (passed through 25 gauge needle 5 times), snap-frozen on liquid nitrogen, and stored at −80° C. until use.
(§2) For the SPA-based assay, WGA-PVT beads (NEN Life Sciences Products) were resuspended in Dulbecco's PBS with calcium and magnesium (500 mg beads in 4 ml PBS). […] The suspension was mixed gently for 20 minutes, 12.3 ml of assay buffer and protease inhibitors were added (final concentration given): 2 μg/ml leupeptin, 10 μM phosphoramidon, 40 μg/ml bacitracin, 5 μg/ml aprotinin, 0.1 mM Pefabloc.
(§3) Coated beads were kept on ice until use. […] Binding reactions were allowed to proceed at room temperature for 3 hours. Quantitation was performed by scintillation counting (TopCount device).
Another test deals with human MCH-2R (Homo sapiens, UniProt Q969V1). As to the kind of experiment: Radiolabeled MCH-R binding assay (SPA based), MCH-2R. As to conditions: MCH-2R IC50 (nM), Table 3.
human MCH-2R, sequence (Q969V1 whole entry): as above
The target of test [2] is T1, human MCH-1R. As to the kind of experiment: Aequorin bioluminescence functional assay, MCH-1R. The note with it: Table 3; % Activation at 10 μM, aequorin functional assay.
Experimental: (§4) The aequorin bioluminescence assay can be used to measure the activity of G protein-coupled receptors that couple through the Gα protein subunit family consisting of Gq and G11. Such coupling leads to phospholipase C activation, intracellular calcium mobilization and protein kinase C activation.
(§5) Following approximately 40 hours of expression the apo-aequorin in the cells was charged for 4 hours with coelenterazine (10 μM) under reducing conditions (300 μM reduced glutathione) in ECB buffer (140 mM NaCl, 20 mM KCl, 20 mM HEPES-NaOH [pH=7.4], 5 mM glucose, 1 mM MgCl2, 1 mM CaCl2, 0.1 mg/ml bovine serum albumin).
(§6) The cells were harvested, washed once in ECB medium and resuspended to 500,000 cells/ml. 100 μl of cell suspension (corresponding to 5×10^4 cells) was then injected into the test plate containing MCH or MCH analogs, and the integrated light emission was recorded over 30 seconds, in 0.5 second units. 20 μL of lysis buffer (0.1% final Triton X-100 concentration) was then injected and the integrated light emission recorded over 10 seconds, in 0.5 second units. The “fractional response” values for each well were calculated by taking the ratio of the integrated response to the initial challenge to the total integrated luminescence including the Triton X-100 lysis response.

T1 sequence (Q99705 whole entry): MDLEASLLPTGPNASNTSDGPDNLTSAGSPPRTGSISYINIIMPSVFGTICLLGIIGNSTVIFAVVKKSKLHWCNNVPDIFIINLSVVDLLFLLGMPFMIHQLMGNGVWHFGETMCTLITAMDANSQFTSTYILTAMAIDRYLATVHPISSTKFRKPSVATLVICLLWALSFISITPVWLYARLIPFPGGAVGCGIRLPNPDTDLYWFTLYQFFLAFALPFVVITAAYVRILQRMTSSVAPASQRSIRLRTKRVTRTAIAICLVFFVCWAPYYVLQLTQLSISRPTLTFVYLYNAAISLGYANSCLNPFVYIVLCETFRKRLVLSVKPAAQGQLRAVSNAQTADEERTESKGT
Experimental for human MCH-2R: as §1, §2, §3
Experimental for human MCH-R2: as §4, §5, §6

For orientation: IC50 means the midpoint of a concentration-inhibition curve. `CSCC[C@H](NC(=O)[C@H](CC(=O)O)NC(=O)[C@H](Cc1ccccc1)NC(=O)[C@@H](N)CC(=O)O)C(=O)N[C@@H](C)C(=O)N[C@@H](CCCNC(=N)N)C(=O)N[C@H]1CSSC[C@@H](C(=O)N[C@@H](Cc2c[nH]c3ccccc23)C(=O)N[C@@H](CCC(N)=O)C(=O)N[C@H](C(=O)O)C(C)C)NC(=O)[C@@H]2CCCN2C(=O)[C@H](CCCNC(=N)N)NC(=O)[C@H](Cc2ccc(O)cc2)NC(=O)[C@H](C(C)C)NC(=O)[C@H](CCCNC(=N)N)NC(=O)CNC(=O)[C@H](CC(C)C)NC(=O)[C@H](CCSC)NC1=O` [compound 45] (H-DFDMARCMLGRVYRPCWQV-OH; disulfide 7-16; N-terminus and C-terminus assumed): the “MCH-2R Activation %” value at human MCH-R2 came out at 94%. The IC50 amounted to 0.3 nM on human MCH-1R [1] and 2 nM at human MCH-2R. The “MCH-1R Activation %” value on human MCH-1R [2] worked out at 96%.

For `CSCC[C@@H]1NC(=O)[C@@H](NC(=O)[C@H](CCCNC(=N)N)NC(=O)[C@H](CC(C)C)NC(=O)[C@H](CCSC)NC(=O)[C@H](CC(=O)O)NC(=O)[C@H](Cc2ccccc2)NC(=O)[C@@H](N)CC(=O)O)CSSC[C@@H](C(=O)N[C@@H](Cc2c[nH]c3ccccc23)C(=O)N[C@@H](CCC(N)=O)C(=O)N[C@H](C(=O)O)C(C)C)NC(=O)[C@@H]2CCCN2C(=O)[C@H](CCCNC(=N)N)NC(=O)[C@H](Cc2ccc(O)cc2)NC(=O)[C@H](C)NC(=O)[C@H](CCCNC(=N)N)NC(=O)CNC(=O)[C@H](CC(C)C)NC1=O` [compound 50] (H-DFDMLRCMLGRAYRPCWQV-OH; disulfide 7-16; N-terminus and C-terminus assumed), the “MCH-2R Activation %” value at human MCH-R2 is 98%. Moreover, the figures for the IC50 on human MCH-1R [1] and on human MCH-2R were 0.9 nM and 25 nM, respectively. Moreover, the “MCH-1R Activation %” value at human MCH-1R [2] turned out to be 95%.
